Like-named read-outs stand apart in the source and are kept apart here. Blank lines part the entries; values can stand above or below the compound they belong to.
Key:
[1] = molecular target: T1, Hsp90 in C. albicans (SC5314) lysate (Candida albicans, UniProt P46598); experiment: biochemical; type: binding; conditions: for Ratio re. GdA: EC50 relative to GdA; for Ratio re. GdA / FP signal (raw) / FP signal relative to 0 nM / FP signal / EC50: SC5314 lysate; for FP signal: raw; for EC50: not normalized, oxime panel experiment 220817, read-out: EC50
T1 construct: endogenous in cells; host or cells: C. albicans SC5314 whole-cell lysate
T1 sequence (P46598 whole entry): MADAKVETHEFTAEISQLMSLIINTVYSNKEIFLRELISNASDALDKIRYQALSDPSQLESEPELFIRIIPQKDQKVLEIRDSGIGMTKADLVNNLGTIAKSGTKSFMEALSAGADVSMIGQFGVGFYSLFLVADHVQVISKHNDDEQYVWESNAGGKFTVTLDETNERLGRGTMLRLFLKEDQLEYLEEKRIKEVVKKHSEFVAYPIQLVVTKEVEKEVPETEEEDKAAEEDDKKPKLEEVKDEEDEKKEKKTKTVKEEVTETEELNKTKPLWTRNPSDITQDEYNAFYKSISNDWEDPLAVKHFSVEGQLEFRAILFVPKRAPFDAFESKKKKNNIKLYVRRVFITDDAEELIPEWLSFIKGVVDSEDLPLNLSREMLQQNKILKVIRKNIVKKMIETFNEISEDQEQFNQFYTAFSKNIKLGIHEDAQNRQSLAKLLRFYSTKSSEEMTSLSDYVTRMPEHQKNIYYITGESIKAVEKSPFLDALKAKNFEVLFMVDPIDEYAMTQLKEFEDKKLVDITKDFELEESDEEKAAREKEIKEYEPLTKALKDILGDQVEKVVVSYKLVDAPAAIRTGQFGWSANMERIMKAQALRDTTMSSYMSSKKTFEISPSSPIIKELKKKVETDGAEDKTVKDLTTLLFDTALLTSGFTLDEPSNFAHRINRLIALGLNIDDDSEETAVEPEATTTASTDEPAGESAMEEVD

Hsp90 in HEPG2 lysate = conditions: for FP signal (raw) / FP signal / EC50: HepG2 lysate; for FP signal: raw; for EC50: oxime panel experiment 220817
[2] = ratio of GdA-normalized EC50s, human over fungal lysate
[3] = ratio of GdA-relative EC50 ratios, HepG2 over SC5314
[4] = EC50 / EC50 of GdA in HepG2 lysate
[5] = EC50 relative to GdA, HEPG2 lysate
[6] = HEPG2 lysate, log concentration 0.137354 (1.372 nM)
[7] = HEPG2 lysate, log concentration 0.61437 (4.115 nM)
[8] = HEPG2 lysate, log concentration 1.09153 (12.346 nM)
[9] = HEPG2 lysate, log concentration 1.56864 (37.037 nM)
[10] = HEPG2 lysate, log concentration 2.04576 (111.111 nM)
[11] = HEPG2 lysate, log concentration 2.52288 (333.333 nM)
[12] = HEPG2 lysate, log concentration 3 (1000 nM)
[13] = HEPG2 lysate, log concentration 3.47712 (3000 nM)
[14] = HEPG2 lysate, log concentration -0.340084 (0.457 nM)

Ratio re. GdA [1]: 24.5326
FP signal (raw) ([1]; 0.457 nM): 193
FP signal relative to 0 nM ([1]; 0.457 nM compound): 0.9461
FP signal ([1]; 0.457 nM compound): 193
FP signal (raw) ([1]; 1.372 nM): 197
FP signal relative to 0 nM ([1]; 1.372 nM compound): 0.9657
FP signal ([1]; 1.372 nM compound): 197
FP signal (raw) ([1]; 4.115 nM): 190
FP signal relative to 0 nM ([1]; 4.115 nM compound): 0.9314
FP signal ([1]; 4.115 nM compound): 190
FP signal (raw) ([1]; 12.346 nM): 193
FP signal relative to 0 nM ([1]; 12.346 nM compound): 0.9461
FP signal ([1]; 12.346 nM compound): 193
FP signal (raw) ([1]; 37.037 nM): 190
FP signal relative to 0 nM ([1]; 37.037 nM compound): 0.9314
FP signal ([1]; 37.037 nM compound): 190
FP signal (raw) ([1]; 111.111 nM): 176
FP signal relative to 0 nM ([1]; 111.111 nM compound): 0.8627
FP signal ([1]; 111.111 nM compound): 176
FP signal (raw) ([1]; 333.333 nM): 131
FP signal relative to 0 nM ([1]; 333.333 nM compound): 0.6422
FP signal ([1]; 333.333 nM compound): 131
FP signal (raw) ([1]; 1000 nM): 57
FP signal relative to 0 nM ([1]; 1000 nM compound): 0.2794
FP signal ([1]; 1000 nM compound): 57
FP signal (raw) ([1]; 3000 nM): 38
FP signal relative to 0 nM ([1]; 3000 nM compound): 0.1863
FP signal ([1]; 3000 nM compound): 38
EC50 [1]: 0.417 µM
HepG2/SC5314 [1, 2]: 1.34
HepG2/SC5314 [1, 3]: 1.34
EC50 (Hsp90 in HEPG2 lysate): 0.729 µM
Compound: COc1ccccc1CON=C1C=CC=CC2OC2CC(C)OC(=O)c2c(O)cc(O)c(Cl)c2C1 (mixture of isomers) [compound 226]
Ratio rel. GdA (HepG2) (Hsp90 in HEPG2 lysate; [4]): 32.872
Ratio rel. GdA (HepG2) (Hsp90 in HEPG2 lysate; [5]): 32.872
FP signal, Fxn Control (Hsp90 in HEPG2 lysate; [6]): 0.9856
FP signal, Fxn Control (Hsp90 in HEPG2 lysate; [7]): 0.9952
FP signal, Fxn Control (Hsp90 in HEPG2 lysate; [8]): 0.9952
FP signal, Fxn Control (Hsp90 in HEPG2 lysate; [9]): 0.9809
FP signal, Fxn Control (Hsp90 in HEPG2 lysate; [10]): 0.9426
FP signal, Fxn Control (Hsp90 in HEPG2 lysate; [11]): 0.8517
FP signal, Fxn Control (Hsp90 in HEPG2 lysate; [12]): 0.445
FP signal, Fxn Control (Hsp90 in HEPG2 lysate; [13]): 0.2105
FP signal, Fxn Control (Hsp90 in HEPG2 lysate; [14]): 0.9713
FP signal (raw) (Hsp90 in HEPG2 lysate; 0.457 nM): 203
FP signal (Hsp90 in HEPG2 lysate; 0.457 nM compound): 203
FP signal (raw) (Hsp90 in HEPG2 lysate; 1.372 nM): 206
FP signal (Hsp90 in HEPG2 lysate; 1.372 nM compound): 206
FP signal (raw) (Hsp90 in HEPG2 lysate; 4.115 nM): 208
FP signal (Hsp90 in HEPG2 lysate; 4.115 nM compound): 208
FP signal (raw) (Hsp90 in HEPG2 lysate; 12.346 nM): 208
FP signal (Hsp90 in HEPG2 lysate; 12.346 nM compound): 208
FP signal (raw) (Hsp90 in HEPG2 lysate; 37.037 nM): 205
FP signal (Hsp90 in HEPG2 lysate; 37.037 nM compound): 205
FP signal (raw) (Hsp90 in HEPG2 lysate; 111.111 nM): 197
FP signal (Hsp90 in HEPG2 lysate; 111.111 nM compound): 197
FP signal (raw) (Hsp90 in HEPG2 lysate; 333.333 nM): 178
FP signal (Hsp90 in HEPG2 lysate; 333.333 nM compound): 178
FP signal (raw) (Hsp90 in HEPG2 lysate; 1000 nM): 93
FP signal (Hsp90 in HEPG2 lysate; 1000 nM compound): 93
FP signal (raw) (Hsp90 in HEPG2 lysate; 3000 nM): 44
FP signal (Hsp90 in HEPG2 lysate; 3000 nM compound): 44

Ratio re. GdA [1]: 21.164
FP signal (raw) ([1]; 0.457 nM): 194
FP signal relative to 0 nM ([1]; 0.457 nM compound): 0.9652
FP signal ([1]; 0.457 nM compound): 194
FP signal (raw) ([1]; 1.372 nM): 195
FP signal relative to 0 nM ([1]; 1.372 nM compound): 0.9701
FP signal ([1]; 1.372 nM compound): 195
FP signal (raw) ([1]; 4.115 nM): 190
FP signal relative to 0 nM ([1]; 4.115 nM compound): 0.9453
FP signal ([1]; 4.115 nM compound): 190
FP signal (raw) ([1]; 12.346 nM): 193
FP signal relative to 0 nM ([1]; 12.346 nM compound): 0.9602
FP signal ([1]; 12.346 nM compound): 193
FP signal (raw) ([1]; 37.037 nM): 178
FP signal relative to 0 nM ([1]; 37.037 nM compound): 0.8856
FP signal ([1]; 37.037 nM compound): 178
FP signal (raw) ([1]; 111.111 nM): 162
FP signal relative to 0 nM ([1]; 111.111 nM compound): 0.806
FP signal ([1]; 111.111 nM compound): 162
FP signal (raw) ([1]; 333.333 nM): 111
FP signal relative to 0 nM ([1]; 333.333 nM compound): 0.5522
FP signal ([1]; 333.333 nM compound): 111
FP signal (raw) ([1]; 1000 nM): 56
FP signal relative to 0 nM ([1]; 1000 nM compound): 0.2786
FP signal ([1]; 1000 nM compound): 56
FP signal (raw) ([1]; 3000 nM): 32
FP signal relative to 0 nM ([1]; 3000 nM compound): 0.1592
FP signal ([1]; 3000 nM compound): 32
EC50 [1]: 0.36 µM
HepG2/SC5314 [1, 2]: 1.415
HepG2/SC5314 [1, 3]: 1.415
EC50 (Hsp90 in HEPG2 lysate): 0.664 µM
Compound: CC1CC2OC2C=CC=CC(=NOCc2cccc(F)c2)Cc2c(Cl)c(O)cc(O)c2C(=O)O1 (mixture of isomers) [compound 227]
Ratio rel. GdA (HepG2) (Hsp90 in HEPG2 lysate; [4]): 29.9414
Ratio rel. GdA (HepG2) (Hsp90 in HEPG2 lysate; [5]): 29.9414
FP signal, Fxn Control (Hsp90 in HEPG2 lysate; [6]): 0.976
FP signal, Fxn Control (Hsp90 in HEPG2 lysate; [7]): 0.9615
FP signal, Fxn Control (Hsp90 in HEPG2 lysate; [8]): 0.9712
FP signal, Fxn Control (Hsp90 in HEPG2 lysate; [9]): 0.9519
FP signal, Fxn Control (Hsp90 in HEPG2 lysate; [10]): 0.9038
FP signal, Fxn Control (Hsp90 in HEPG2 lysate; [11]): 0.7933
FP signal, Fxn Control (Hsp90 in HEPG2 lysate; [12]): 0.399
FP signal, Fxn Control (Hsp90 in HEPG2 lysate; [13]): 0.1923
FP signal, Fxn Control (Hsp90 in HEPG2 lysate; [14]): 0.976
FP signal (raw) (Hsp90 in HEPG2 lysate; 0.457 nM): 203
FP signal (Hsp90 in HEPG2 lysate; 0.457 nM compound): 203
FP signal (raw) (Hsp90 in HEPG2 lysate; 1.372 nM): 203
FP signal (Hsp90 in HEPG2 lysate; 1.372 nM compound): 203
FP signal (raw) (Hsp90 in HEPG2 lysate; 4.115 nM): 200
FP signal (Hsp90 in HEPG2 lysate; 4.115 nM compound): 200
FP signal (raw) (Hsp90 in HEPG2 lysate; 12.346 nM): 202
FP signal (Hsp90 in HEPG2 lysate; 12.346 nM compound): 202
FP signal (raw) (Hsp90 in HEPG2 lysate; 37.037 nM): 198
FP signal (Hsp90 in HEPG2 lysate; 37.037 nM compound): 198
FP signal (raw) (Hsp90 in HEPG2 lysate; 111.111 nM): 188
FP signal (Hsp90 in HEPG2 lysate; 111.111 nM compound): 188
FP signal (raw) (Hsp90 in HEPG2 lysate; 333.333 nM): 165
FP signal (Hsp90 in HEPG2 lysate; 333.333 nM compound): 165
FP signal (raw) (Hsp90 in HEPG2 lysate; 1000 nM): 83
FP signal (Hsp90 in HEPG2 lysate; 1000 nM compound): 83
FP signal (raw) (Hsp90 in HEPG2 lysate; 3000 nM): 40
FP signal (Hsp90 in HEPG2 lysate; 3000 nM compound): 40
